Test results published in patent publication US12497365B2, “4-pyridinyl formamide compound or derivative thereof, preparation method therefor, herbicidal composition and use thereof” (Qingdao Kingagroot Chemical Compound Co., Ltd., priority 2019, dated 2025).

system: Chenopodium album; assay: Weeding effect in post-emergence stage; type: in vivo; details: active ingredient 2000 g/ha, 3 weeks after application, fresh weight control rate
In short: (§1)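 Post-emergence spray, 2-3 leaf stage; acetone/Tween 80 formulation + methyl oleate EC synergist (1.5 liter/ha); 125-2000 g/ha via spray tower. Greenhouse, 3 wk. Read-out: fresh weight growth control rate, graded by activity level.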

Structure (SMILES) | Weeding effect, activity level (growth control rate), Chenopodium album
Cc1nn(C)cc1-c1nccc(C(=O)Nc2nnnn2C)c1Cl [Compound 1-169] | 5 (Level 5: growth control rate is above 85%)
Cn1nnnc1NC(=O)c1ccnc(-c2ccc(C#N)cn2)c1Cl [Compound 1-121] | 5 (Level 5: growth control rate is above 85%)
Cn1nnnc1NC(=O)c1ccnc(-c2ccc(O)cc2)c1Cl [Compound 1-35] | 5 (Level 5: growth control rate is above 85%)
CC(=O)Nc1ccc(-c2nccc(C(=O)Nc3nnnn3C)c2Cl)cc1 [Compound 1-47] | 5 (Level 5: growth control rate is above 85%)
Cn1nnnc1NC(=O)c1ccnc(-c2ccc(C(F)(F)F)cc2F)c1Cl [Compound 1-74] | 5 (Level 5: growth control rate is above 85%)
COc1ccc(Cl)c(-c2nccc(C(=O)Nc3nnnn3C)c2Cl)c1 [Compound 1-103] | 5 (Level 5: growth control rate is above 85%)
Cn1nnnc1NC(=O)c1ccnc(-c2ccc(F)c(C#N)c2)c1Cl [Compound 1-84] | 5 (Level 5: growth control rate is above 85%)
COc1cccc(-c2nccc(C(=O)Nc3nnnn3C)c2Cl)c1 [Compound 1-29] | 5 (Level 5: growth control rate is above 85%)
Cn1nnnc1NC(=O)c1ccnc(-c2ccccc2CBr)c1Cl [Compound 1-23] | 5 (Level 5: growth control rate is above 85%)
Cn1nc(C(F)(F)F)cc1-c1nccc(C(=O)Nc2nnnn2C)c1Cl [Compound 1-180] | 5 (Level 5: growth control rate is above 85%)
Cn1nnnc1NC(=O)c1ccnc(-c2cn[nH]c2)c1Cl [Compound 1-167] | 5 (Level 5: growth control rate is above 85%)
COc1c(Cl)ccc(-c2nccc(C(=O)Nc3nnnn3C)c2Cl)c1F [Compound 1-110] | 5 (Level 5: growth control rate is above 85%)
Cc1ccc(-c2nccc(C(=O)Nc3nnnn3C)c2Cl)cc1 [Compound 1-11] | 5 (Level 5: growth control rate is above 85%)
Cn1nccc1-c1nccc(C(=O)Nc2nnnn2C)c1Cl [Compound 1-178] | 5 (Level 5: growth control rate is above 85%)
Cn1nnnc1NC(=O)c1ccnc(-c2ccc(F)c(F)c2)c1Cl [Compound 1-66] | 5 (Level 5: growth control rate is above 85%)
COc1c(C(=O)Nc2nnnn2C)ccnc1-c1ccc(C#N)cc1 [Compound 1-2029] | 5 (Level 5: growth control rate is above 85%)
Cc1nnc(NC(=O)c2ccnc(-c3ccc(F)cc3)c2Cl)o1 [Compound 1-962] | 5 (Level 5: growth control rate is above 85%)
Cn1nnnc1NC(=O)c1ccnc(-c2ccnc(C#N)c2)c1Cl [Compound 1-148] | 5 (Level 5: growth control rate is above 85%)
Cn1nnnc1NC(=O)c1ccnc(OCC(F)(F)F)c1Cl [Compound 1-2062] | 5 (Level 5: growth control rate is above 85%)
Cc1ccc(F)c(-c2nccc(C(=O)Nc3nnnn3C)c2Cl)c1 [Compound 1-67] | 5 (Level 5: growth control rate is above 85%)
CCCCCc1ccc(-c2nccc(C(=O)Nc3nnnn3C)c2Cl)cc1 [Compound 1-13] | 5 (Level 5: growth control rate is above 85%)
Cn1nnnc1NC(=O)c1ccnc(-c2ccc(S(C)(=O)=O)cc2)c1Cl [Compound 1-45] | 5 (Level 5: growth control rate is above 85%)

system: Amaranthus retroflexus L.; assay: Weeding effect in post-emergence stage; type: in vivo; details: active ingredient 2000 g/ha, 3 weeks after application, fresh weight control rate
In short: as §1

Structure (SMILES) | Weeding effect, activity level (growth control rate), Amaranthus retroflexus L.
Cc1nn(C)cc1-c1nccc(C(=O)Nc2nnnn2C)c1Cl [Compound 1-169] | 5 (Level 5: growth control rate is above 85%)
Cn1nnnc1NC(=O)c1ccnc(-c2ccc(C#N)cn2)c1Cl [Compound 1-121] | 5 (Level 5: growth control rate is above 85%)
Cn1nnnc1NC(=O)c1ccnc(-c2ccc(O)cc2)c1Cl [Compound 1-35] | 5 (Level 5: growth control rate is above 85%)
CC(=O)Nc1ccc(-c2nccc(C(=O)Nc3nnnn3C)c2Cl)cc1 [Compound 1-47] | 5 (Level 5: growth control rate is above 85%)
Cn1nnnc1NC(=O)c1ccnc(-c2ccc(C(F)(F)F)cc2F)c1Cl [Compound 1-74] | 5 (Level 5: growth control rate is above 85%)
COc1ccc(Cl)c(-c2nccc(C(=O)Nc3nnnn3C)c2Cl)c1 [Compound 1-103] | 5 (Level 5: growth control rate is above 85%)
Cn1nnnc1NC(=O)c1ccnc(-c2ccc(F)c(C#N)c2)c1Cl [Compound 1-84] | 5 (Level 5: growth control rate is above 85%)
COc1cccc(-c2nccc(C(=O)Nc3nnnn3C)c2Cl)c1 [Compound 1-29] | 5 (Level 5: growth control rate is above 85%)
Cn1nnnc1NC(=O)c1ccnc(-c2ccccc2CBr)c1Cl [Compound 1-23] | 5 (Level 5: growth control rate is above 85%)
Cn1nc(C(F)(F)F)cc1-c1nccc(C(=O)Nc2nnnn2C)c1Cl [Compound 1-180] | 5 (Level 5: growth control rate is above 85%)
Cn1nnnc1NC(=O)c1ccnc(-c2cn[nH]c2)c1Cl [Compound 1-167] | 5 (Level 5: growth control rate is above 85%)
COc1c(Cl)ccc(-c2nccc(C(=O)Nc3nnnn3C)c2Cl)c1F [Compound 1-110] | 5 (Level 5: growth control rate is above 85%)
Cc1ccc(-c2nccc(C(=O)Nc3nnnn3C)c2Cl)cc1 [Compound 1-11] | 5 (Level 5: growth control rate is above 85%)
Cn1nccc1-c1nccc(C(=O)Nc2nnnn2C)c1Cl [Compound 1-178] | 5 (Level 5: growth control rate is above 85%)
Cn1nnnc1NC(=O)c1ccnc(-c2ccc(F)c(F)c2)c1Cl [Compound 1-66] | 5 (Level 5: growth control rate is above 85%)
COc1c(C(=O)Nc2nnnn2C)ccnc1-c1ccc(C#N)cc1 [Compound 1-2029] | 5 (Level 5: growth control rate is above 85%)
Cc1nnc(NC(=O)c2ccnc(-c3ccc(F)cc3)c2Cl)o1 [Compound 1-962] | 5 (Level 5: growth control rate is above 85%)
Cn1nnnc1NC(=O)c1ccnc(-c2ccnc(C#N)c2)c1Cl [Compound 1-148] | 5 (Level 5: growth control rate is above 85%)
Cn1nnnc1NC(=O)c1ccnc(OCC(F)(F)F)c1Cl [Compound 1-2062] | 5 (Level 5: growth control rate is above 85%)
Cc1ccc(F)c(-c2nccc(C(=O)Nc3nnnn3C)c2Cl)c1 [Compound 1-67] | 5 (Level 5: growth control rate is above 85%)
CCCCCc1ccc(-c2nccc(C(=O)Nc3nnnn3C)c2Cl)cc1 [Compound 1-13] | 5 (Level 5: growth control rate is above 85%)
Cn1nnnc1NC(=O)c1ccnc(-c2ccc(S(C)(=O)=O)cc2)c1Cl [Compound 1-45] | 5 (Level 5: growth control rate is above 85%)

system: Descurainia sophia; assay: Weeding effect in post-emergence stage; type: in vivo; details: active ingredient 2000 g/ha, 3 weeks after application, fresh weight control rate
In short: as §1

Structure (SMILES) | Weeding effect, activity level (growth control rate), Descurainia sophia
Cc1nn(C)cc1-c1nccc(C(=O)Nc2nnnn2C)c1Cl [Compound 1-169] | 5 (Level 5: growth control rate is above 85%)
Cn1nnnc1NC(=O)c1ccnc(-c2ccc(C#N)cn2)c1Cl [Compound 1-121] | 5 (Level 5: growth control rate is above 85%)
Cn1nnnc1NC(=O)c1ccnc(-c2ccc(O)cc2)c1Cl [Compound 1-35] | 5 (Level 5: growth control rate is above 85%)
CC(=O)Nc1ccc(-c2nccc(C(=O)Nc3nnnn3C)c2Cl)cc1 [Compound 1-47] | 5 (Level 5: growth control rate is above 85%)
Cn1nnnc1NC(=O)c1ccnc(-c2ccc(C(F)(F)F)cc2F)c1Cl [Compound 1-74] | 5 (Level 5: growth control rate is above 85%)
COc1ccc(Cl)c(-c2nccc(C(=O)Nc3nnnn3C)c2Cl)c1 [Compound 1-103] | 5 (Level 5: growth control rate is above 85%)
Cn1nnnc1NC(=O)c1ccnc(-c2ccc(F)c(C#N)c2)c1Cl [Compound 1-84] | 5 (Level 5: growth control rate is above 85%)
COc1cccc(-c2nccc(C(=O)Nc3nnnn3C)c2Cl)c1 [Compound 1-29] | 5 (Level 5: growth control rate is above 85%)
Cn1nnnc1NC(=O)c1ccnc(-c2ccccc2CBr)c1Cl [Compound 1-23] | 5 (Level 5: growth control rate is above 85%)
Cn1nc(C(F)(F)F)cc1-c1nccc(C(=O)Nc2nnnn2C)c1Cl [Compound 1-180] | 5 (Level 5: growth control rate is above 85%)
Cn1nnnc1NC(=O)c1ccnc(-c2cn[nH]c2)c1Cl [Compound 1-167] | 5 (Level 5: growth control rate is above 85%)
COc1c(Cl)ccc(-c2nccc(C(=O)Nc3nnnn3C)c2Cl)c1F [Compound 1-110] | 5 (Level 5: growth control rate is above 85%)
Cc1ccc(-c2nccc(C(=O)Nc3nnnn3C)c2Cl)cc1 [Compound 1-11] | 5 (Level 5: growth control rate is above 85%)
Cn1nccc1-c1nccc(C(=O)Nc2nnnn2C)c1Cl [Compound 1-178] | 5 (Level 5: growth control rate is above 85%)
Cn1nnnc1NC(=O)c1ccnc(-c2ccc(F)c(F)c2)c1Cl [Compound 1-66] | 5 (Level 5: growth control rate is above 85%)
COc1c(C(=O)Nc2nnnn2C)ccnc1-c1ccc(C#N)cc1 [Compound 1-2029] | 5 (Level 5: growth control rate is above 85%)
Cc1nnc(NC(=O)c2ccnc(-c3ccc(F)cc3)c2Cl)o1 [Compound 1-962] | 5 (Level 5: growth control rate is above 85%)
Cn1nnnc1NC(=O)c1ccnc(-c2ccnc(C#N)c2)c1Cl [Compound 1-148] | 5 (Level 5: growth control rate is above 85%)
Cn1nnnc1NC(=O)c1ccnc(OCC(F)(F)F)c1Cl [Compound 1-2062] | 5 (Level 5: growth control rate is above 85%)
Cc1ccc(F)c(-c2nccc(C(=O)Nc3nnnn3C)c2Cl)c1 [Compound 1-67] | 5 (Level 5: growth control rate is above 85%)
CCCCCc1ccc(-c2nccc(C(=O)Nc3nnnn3C)c2Cl)cc1 [Compound 1-13] | 5 (Level 5: growth control rate is above 85%)
Cn1nnnc1NC(=O)c1ccnc(-c2ccc(S(C)(=O)=O)cc2)c1Cl [Compound 1-45] | 5 (Level 5: growth control rate is above 85%)

system: Abutilon theophrasti; assay: Weeding effect in post-emergence stage; type: in vivo; details: active ingredient 2000 g/ha, 3 weeks after application, fresh weight control rate
In short: as §1

Structure (SMILES) | Weeding effect, activity level (growth control rate), Abutilon theophrasti
Cc1nn(C)cc1-c1nccc(C(=O)Nc2nnnn2C)c1Cl [Compound 1-169] | 5 (Level 5: growth control rate is above 85%)
Cn1nnnc1NC(=O)c1ccnc(-c2ccc(C#N)cn2)c1Cl [Compound 1-121] | 5 (Level 5: growth control rate is above 85%)
Cn1nnnc1NC(=O)c1ccnc(-c2ccc(O)cc2)c1Cl [Compound 1-35] | 5 (Level 5: growth control rate is above 85%)
CC(=O)Nc1ccc(-c2nccc(C(=O)Nc3nnnn3C)c2Cl)cc1 [Compound 1-47] | 5 (Level 5: growth control rate is above 85%)
Cn1nnnc1NC(=O)c1ccnc(-c2ccc(C(F)(F)F)cc2F)c1Cl [Compound 1-74] | 5 (Level 5: growth control rate is above 85%)
COc1ccc(Cl)c(-c2nccc(C(=O)Nc3nnnn3C)c2Cl)c1 [Compound 1-103] | 5 (Level 5: growth control rate is above 85%)
Cn1nnnc1NC(=O)c1ccnc(-c2ccc(F)c(C#N)c2)c1Cl [Compound 1-84] | 5 (Level 5: growth control rate is above 85%)
COc1cccc(-c2nccc(C(=O)Nc3nnnn3C)c2Cl)c1 [Compound 1-29] | 5 (Level 5: growth control rate is above 85%)
Cn1nnnc1NC(=O)c1ccnc(-c2ccccc2CBr)c1Cl [Compound 1-23] | 5 (Level 5: growth control rate is above 85%)
Cn1nc(C(F)(F)F)cc1-c1nccc(C(=O)Nc2nnnn2C)c1Cl [Compound 1-180] | 5 (Level 5: growth control rate is above 85%)
Cn1nnnc1NC(=O)c1ccnc(-c2cn[nH]c2)c1Cl [Compound 1-167] | 5 (Level 5: growth control rate is above 85%)
COc1c(Cl)ccc(-c2nccc(C(=O)Nc3nnnn3C)c2Cl)c1F [Compound 1-110] | 5 (Level 5: growth control rate is above 85%)
Cc1ccc(-c2nccc(C(=O)Nc3nnnn3C)c2Cl)cc1 [Compound 1-11] | 5 (Level 5: growth control rate is above 85%)
Cn1nccc1-c1nccc(C(=O)Nc2nnnn2C)c1Cl [Compound 1-178] | 5 (Level 5: growth control rate is above 85%)
Cn1nnnc1NC(=O)c1ccnc(-c2ccc(F)c(F)c2)c1Cl [Compound 1-66] | 5 (Level 5: growth control rate is above 85%)
COc1c(C(=O)Nc2nnnn2C)ccnc1-c1ccc(C#N)cc1 [Compound 1-2029] | 5 (Level 5: growth control rate is above 85%)
Cc1nnc(NC(=O)c2ccnc(-c3ccc(F)cc3)c2Cl)o1 [Compound 1-962] | 5 (Level 5: growth control rate is above 85%)
Cn1nnnc1NC(=O)c1ccnc(-c2ccnc(C#N)c2)c1Cl [Compound 1-148] | 5 (Level 5: growth control rate is above 85%)
Cn1nnnc1NC(=O)c1ccnc(OCC(F)(F)F)c1Cl [Compound 1-2062] | 5 (Level 5: growth control rate is above 85%)
Cc1ccc(F)c(-c2nccc(C(=O)Nc3nnnn3C)c2Cl)c1 [Compound 1-67] | 5 (Level 5: growth control rate is above 85%)
CCCCCc1ccc(-c2nccc(C(=O)Nc3nnnn3C)c2Cl)cc1 [Compound 1-13] | 5 (Level 5: growth control rate is above 85%)
Cn1nnnc1NC(=O)c1ccnc(-c2ccc(S(C)(=O)=O)cc2)c1Cl [Compound 1-45] | 5 (Level 5: growth control rate is above 85%)
